Assay results from US7196063B1, “Peptides and pharmaceutical compositions comprising same” (NST NeuroSurvival Technologies Ltd., priority 1999, dated 2007).
Where two headings read alike, the source gives them in different places.

Tests used:
apoptotic HeLa cells = details: 500 nM, FACS
Method: Detection of binding to apoptotic HeLa cells was performed according to the following procedure: Cells were plated on tissue culture plates at a density of 5×10^6 cells/10 cm dish, and grown in their normal medium at 37° C. for 18 hr. The medium was replaced with a medium containing 2% FCS and 500 μM of dopamine. Eighteen hours later, floating cells that were identified as advanced apoptotic cells were collected and transferred to a 50 ml tube. To evaluate the level of apoptosis in the cultures, aliquots of 10^5 cells from the cultures were plated on 48 wells plate and stained with Hoechst 33342 dye (Molecular Probes) at a concentration of 1 mg/ml for 20 min (as described above). Non-treated cells served as control. For collecting the non-treated cells, the medium of the culture was aspirated and discarded, the cells were rinsed with growing medium and 2 ml of medium were added to the culture dish. The cells were detached from the culture dish using a cell scraper and separated to single cells by passage through a syringe with a 18G needle.
The reactions were incubated at room temperature for 40 minutes and then 400 μl of TBS was added and cells were collected by centrifugation at 3000×g for 3 minutes. Cells were washed in 1 ml of TBS and centrifuged as before and detecting of the bound compound was performed using 100 μl of TBS containing streptavidin conjugated to fluorescein (FITC) (016-090-084 from Jackson ImmunoResearch lab. Inc.). Incubation was for 15 minutes at room temperature in the dark. Thereafter, 400 μl of TBS was added and cells were centrifuged and washed again with 1 ml of TBS as before, re-suspended in 400 μl of TBS and then taken for FACS analysis. The FACS analysis was performed on Beckton-Dickinson cell sorter, using lysis II software. Excitation was at 488 nm and emission for FITC detection was at 535 nm and for PI detection at 585 nm.

thrombin = target: T1, thrombin (Homo sapiens, UniProt P00734); test: Direct effect on thrombin activity in vitro; type: biochemical; details: commercially available thrombin and chromogenic substrate; not shown
T1 construct: purchased

cardiolipin = tested on: cardiolipin
Text: The antiphospholipid antibody syndrom (APS) is a thrombophilic condition, characterized by a panel of antibodies that recognize anionic phospholipid-protein cofactor complexes. The antiphospholipid antibodies lupus anticoagulant and anticardiolipin, (present in high concentrations in SLE patients), are associated with several medical disorders including artherial and venous thrombosis, and recurrent pregnancy loss (Rand J H et al., 1998, Blood. 92, 1652–1660). […] Noncellular negatively charged phospholipid coated surface (cardiolipin) were chosen as a target for binding.
CL, (Diphosphatidylglycerol, c-1649, Sigma), prepared at 50 μg/ml in ethanol, was added to a 96 well plate (100 μl/well) using Immunolon 4 plates (Dynatech, Chantilly, Va.) and incubated for 16–20 hr for evaporation of ethanol. As control, wells were coated with ethanol only. The coated plates were washed 3 times with 100 μl of blocking buffer (PBS containing 0.3% gelatin (Sigma) and 1 mM EDTA) to block non specific binding. A 5 min incubation time was used between each wash. Normal plasma (Ilex, Italy, 84670-11) and plasma derived from SLE patients (either from Gradipore, Australia, LAHP-1, or from Biopool, Ventura, Calif.) were prepared according to the producer's instruction. The plasma was diluted 1/10 in the blocking buffer and was added to the CL and ethanol coated wells. […] Following 3 hr incubation, the plates were washed twice with PBS/BSA buffer (0.4% bovine serum albumine (BSA) in PBS). For detection of anti cardiolipin binding property of the tested plasma, the plates were incubated with a 1/10000 dilution of Peroxidase-conjugated affinity purified Goat anti-human IgG (Jackson Immunoresearch lab.) in PBS/BSA buffer for 1 hour. The plates were then washed 3 times with PBS/BSA buffer, and color reaction was developed by incubation with 100 ul of 0-phenylenedi-amine (OPD) dihydrochloride (Sigma p-7288) at a concentration of 0.4 mg/ml in 0.05 M phosphate citrate buffer, pH 5.0 supplemented with 4 ul of 30% hydrogen peroxide (Aldrich) for 10 ml mixture. To detect the level of NST500 compounds that were bound to CL, parallel wells were incubated with streptavidin conugated to OPD (SA-OPD, Jackson Immunoresearch lab.), that specifically recognize the biotinylated NST 500 compounds. The resulting colour changes were recorded at 405 nm using a Bio Tek Elx800 Eliza reader.

HUVEC cells = test: Cell-ELISA: binding of anti β2GPI antibodies to HUVEC cells; type: cell-based, Human
Method: Human β2GPI is a plasma phospholipid binding protein that is required for the binding of autoantibodies in sera from patients with APS to cardiolipin (McNeil H P et al., 1990 Proc. Natl. Acad. Sci. 87, 4120–4124). […] Anti β2GPI antibodies are present in sera of APS patients. […] For cell-ELISA tests, HUVEC cells (at 40,000/well), were plated on 96 well tissue culture plates (Nunc) in 200 μl of the culture medium, and allowed to grow for 18–22 hours. Following 2 washes with Hepes buffer (10 mM Hepes pH 8, 140 mM NaCl) and 5 min incubation with the culture medium, the wells were incubated for 3 hr with 10% of normal plasma in PBS (as a source of β2 GPI protein), supplemented with 1/500 of goat anti-human Apolipoprotein-H (β2 GPI) (Affinity biologicals, PA). Parallel control wells were incubated with 10% of normal plasma from Ilex. Serial dilutions of NST500 compounds were prepared in plasma/PBS. Washes and development were as described for anti CL ELISA.
As presented in FIG. 5B, in the presence of plasma and absence of NST500, HUVEC cells supported binding of anti β2GPI to their surface. However, displacement of anti β2GPI by NST500 compounds in this system occurred in a concentration dependent manner, similar to the results obtained with CL.

Question: Which results are given for “Myristate-KVSFFCKNKEKKC-K (SEQ ID NO:1) (biotin) [NST513]”?
Answer: binding to apoptotic versus control HeLa cells (apoptotic HeLa cells): strong labeling of apoptotic versus control cells; increase in the percentage of apoptotic cells labeled, as compared to non-apoptotic cells (apoptotic HeLa cells; PI and FITC): 5.5 fold; binding to apoptotic versus control HeLa cells (apoptotic HeLa cells; listed as NST313): specifically binds to apoptotic cells; direct effect on thrombin activity (thrombin): no direct inhibitory effect on thrombin activity; displacement of plasma derived from SLE patients from cardiolipin (cardiolipin; 1 μM): did not exhibit displacement; displacement of plasma derived from SLE patients from cardiolipin (cardiolipin; 10 μM): almost complete displacement; inhibition of binding of plasma derived from SLE patients to cardiolipin, dose response (cardiolipin; 1–10 μM): marked displacement of IgG; less potent than NST516 in blocking anti β2 GPI binding (HUVEC cells): 50%
